From patent US7262185B2, “Benzazepine derivative, process for producing the same, and use” (Takeda Chemical Industries Ltd., priority 2001, dated 2007)

Legend:
[1] = target: T1, human CCR5 chemokine receptor (Homo sapiens, UniProt P51681); assay: Inhibition of [125I]-RANTES binding to CCR5/CHO cells (CCR5 antagonistic activity); conditions: 40 min, test compound 1 μM, [125I]-RANTES as ligand, room temperature, read-out: Binding Inhibitory Ratio (%)
T1 construct: expressed in transfected cells
Outline: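 CCR5-transfected CHO-K1 cells, 5×10^4/well cultured 24 h, incubated with test compound (1 μM) and [125I]-RANTES ([…]) in Ham's F12 with 0.5% BSA, 20 mM HEPES pH 7.2, 40 min at room temperature. Bound radioactivity counted after cold PBS washes; percent inhibition of binding reported.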

T1 sequence (P51681 whole entry): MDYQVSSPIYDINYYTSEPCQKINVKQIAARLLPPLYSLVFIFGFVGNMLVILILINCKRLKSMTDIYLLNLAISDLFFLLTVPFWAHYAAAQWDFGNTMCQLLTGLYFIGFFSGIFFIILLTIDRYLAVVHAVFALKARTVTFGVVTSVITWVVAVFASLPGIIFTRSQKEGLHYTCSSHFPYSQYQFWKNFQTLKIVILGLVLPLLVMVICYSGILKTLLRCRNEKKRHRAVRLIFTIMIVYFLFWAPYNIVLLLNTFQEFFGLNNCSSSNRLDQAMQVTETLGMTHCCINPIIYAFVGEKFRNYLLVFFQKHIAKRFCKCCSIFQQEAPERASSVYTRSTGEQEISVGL

CCCCOCCOc1ccc(-c2ccc3c(c2)C=C(C(=O)Nc2ccc([S+]([O-])Cc4nccn4CCCC(=O)NC)cc2)CCN3CC(C)C)cc1 (centres unmarked) [Compound 424, 7-[4-(2-butoxyethoxy)phenyl]-N-[4-[[[1-[4-(methylamino)-4-oxobutyl]-1H-imidazol-2-yl]methyl]sulfinyl]phenyl]-1-isobutyl-2,3-dihydro-1H-1-benzazepine-4-carboxamide]
inhibition at 1 µM [1]: 96%
melting point: 159 to 161 °C
